Data from patent publication US7862995B2, “Methods and materials for predicting responsiveness to treatment with dual tyrosine kinase inhibitor” (Targeted Molecular Diagnostics, priority 2004, dated 2011).
“Also recorded” adds a separate entry of the source.

Experiments:
[1] = system: AU-565 breast cancer cells; assay: Viability of AU-565 and Bcl-2-transfected AU-565 cells after GW2974 treatment; assay type: cell-based
Text: Au-565 breast cancer cells were obtained from the American Tissue Culture Collection, (deposit # CRL-2351) (Manassas, Va.) and were transfected with a Bcl-2 cDNA to express high levels of Bcl-2. Methods of transfecting cells are well known in the art and any known methods may be used in this example. Transfected Au-565 cells were then exposed to GW2974 (Sigma-Aldrich, St. Louis, Mo.), a dual EGFR/HER2 tyrosine kinase inhibitor.

ER in MCF-7(HER2) cells = assay: ER localization by immunofluorescence in MCF-7(HER2) cells; assay type: cell-based; details: 1 mM GW2974 for 4 days
Text: Nuclei are stained with DAPI and ER is detected by an immunofluorescent antibody

BT474 breast tumor cells = assay: Cell death in estrogen-stimulated BT474 cells, methylene blue staining; assay type: cell-based, human; details: 1 μM estrogen 24 hr, 5 μM GW2974 90 min, 10 μM tamoxifen 72 hr
Method: Exponentially growing BT474 cells were treated with 1 μM estrogen for 24 hr. After 24 hr the cells were either untreated or treated with 5 μM small molecule dual inhibitor of EGFR/erbB2 (Sigma, GW2974) for 90 min. After 90 min, the cells were either untreated or treated with 10 μM tamoxifen for 72 hr. Cells were then washed with 1×PBS, stained with methylene blue (1% methylene blue in 50% methanol), rinsed with water, and dried overnight.

[2] = system: breast, gastric, and head/neck carcinoma cell lines compared to normal human foreskin fibroblasts (HFF); details: cited from earlier work
[3] = system: pAkt, pErk1 and pErk2 in MCF-7+HER2 cells; assay: Western blot of MCF-7+HER2 cells for pErk1/Erk2/pAkt; assay type: cell-based
[4] = system: ER (and PR) expression in breast cancer cells; assay: ER (and PR) expression in breast cancer cells; assay type: cell-based
[5] = system: ER in breast cancer tissues; assay: IHC of ER in breast cancer tissues after treatment; assay type: in vivo
FOXO3 = assay: ELISA gel for FOXO3; details: following treatment
[6] = system: forkhead transcription factor 3 (FOXO3A) in AU-565 breast cancer cells; assay: FOXO3A staining of AU-565 breast cancer cells; assay type: cell-based
[7] = Clinical response of a subject treated with a small molecule dual inhibitor of EGFR/erbB2; assay type: in vivo, human; details: one subject
[8] = system: invasive breast carcinoma; assay: TUNEL staining of PCD in patient tumor samples; assay type: in vivo, human
Method: All TUNEL solutions and staining reagents used in the present invention were purchased from Roche. Paraffin-embedded tissue clinical samples were dewaxed and rehydrated by heating at 60° C. followed by washing in xylene and rehydration through a graded series of washes with ethanol and double distilled water. Samples were incubated for 15-30 min at 21-37° C. with Proteinase K. Slides were rinsed twice with PBS. The area around the sample was dried and 50 μl of TUNEL reaction mixture was added to each slide. A coverslip was added to each slide and incubated for 60 min at 37° C. in a humidified chamber in the dark. The slides were rinsed three times with PBS. The TUNEL signal was converted by first drying the area around the sample and then adding 50 μl of Converter-POD reagent. The slides were incubated in a humidified chamber for 30 min at 37° C. and then rinsed three times in PBS. 100 μl of DAB Substrate was added to each slide and incubated for 10 min at 15-25° C. The slides were then rinsed three times with PBS. Slides were mounted under glass coverslips and TUNEL staining was analyzed under a light microscope.

| Structure (SMILES) | viable cells ([1]; AU-565/Bcl-2 cells (overexpressing Bcl-2) treated by GW2974) | viable cells ([1]; AU-565 cells treated by GW2974) [%] | higher rate of cell survival in cells with high Bcl-2 expression ([1]; following treatment with GW2974) | ER localization (ER in MCF-7(HER2) cells) | cell death (BT474 breast tumor cells) | selectivity in inhibiting cell growth [2] | effectiveness in cells pre-treated with estrogen ([3]; MCF-7+HER2 cells pre-treated with estrogen, then GW2974) | pAkt expression ([3]; MCF-7+HER2 cells treated with GW2974) | expression of pErk1 and pErk2 ([3]; MCF-7+HER2 cells treated with GW2974, relative to baseline control (actin)) | ER (and PR) expression [4] | ER localization [5] | FOXO3 expression (FOXO3) | FOXO3A expression [6] | clinical response [7] | duration of response / disease free state ([7]; following treatment) | response of TUNEL-positive patient to treatment ([8]; patient with invasive breast carcinoma (IBC) positive for TUNEL staining) | levels of PCD by TUNEL staining ([8]; patient with invasive breast carcinoma, 21 days after treatment) |
| --- | --- | --- | --- | --- | --- | --- | --- | --- | --- | --- | --- | --- | --- | --- | --- | --- | --- |
| CN(C)c1cc2c(Nc3ccc4c(cnn4Cc4ccccc4)c3)ncnc2cn1 [GW2974] | approximately 50% | ~20 | approximately 30% | accumulation of the ER in the cellular nucleus | increases cell death in the presence of tamoxifen | greater than 75 fold | not effective | not expressed; also recorded: greatly reduced | decreased | upregulates ER (and PR) expression |  |  |  |  |  |  |  |
| CS(=O)(=O)CCNCc1ccc(-c2ccc3ncnc(Nc4ccc(OCc5cccc(F)c5)c(Cl)c4)c3c2)o1 [lapatinib] |  |  |  |  |  |  |  |  |  |  | change in ER localization | upregulation of FOXO3 | upregulated; also recorded: upregulates FOXO3A | complete response | at least 20 months | responded well | significantly increased levels of PCD |
